Results reported in patent publication US11981919B2, “Methods for forming three-dimensional human retinal tissue in vitro” (THE JOHNS HOPKINS UNIVERSITY, priority 2014, dated 2024).

Columns and labels:
[1] = test system: KA.1- and IMR90-4-derived RCs; assay: Retinoic acid treatment of hiPSC-derived retinal cups, rod-opsin expression by immunohistochemistry; format: cell-based, human; settings: RA treatment in W10-W14
Experimental: (§1) To promote photoreceptor maturation, suspension cultures of RCs were supplemented daily with 1 μM all-trans retinoic acid (RA; Sigma) at various time windows: W7-W17; W7-W14 or W10-W14; subsequently, RA concentration was decreased to 0.5 μM.
(§2) RCs were fixed in 4% PFA for 30 min. […] DAPI was used for nuclear counterstaining (Molecular Probes).

[2] = test system: CB-iPSC6.2-derived retinal cups (RCs); assay: as above; format: cell-based, human; settings: for rod-opsin expression (qualitative, microscopic observation): 3 independent experiments
Experimental: as §1, §2

Compound: CC1=C(/C=C/C(C)=C/C=C/C(C)=C/C(=O)O)C(C)(C)CCC1 [retinoic acid, all-trans retinoic acid]
- rod-opsin expression (qualitative, microscopic observation) [1]: induction of rod-opsin expression was also observed, although at a later time and less efficiently than in CB-iPSC6.2-derived RCs
- rod-opsin expression (qualitative, microscopic observation) ([2]; 1 μM RA during W10-W14, W17 and W21): dispersed cells with strong rod-opsin expression in their cell bodies already at W17
- rod-opsin expression (qualitative, microscopic observation) ([2]; 1 μM RA in W7-W14): low levels of rod-opsin expression in the distal part of photoreceptor cells
- retinal cups showing dispersed cells with higher rod-opsin expression, also in cell bodies ([2]; 1 μM retinoic acid W10-W14, evaluated at W17, n=8): ~50%
- retinal cups showing a significant increase in the number of photoreceptors expressing rod opsin ([2]; 1 μM retinoic acid W10-W14, evaluated by W21, n=20): 90%
